Where two headings read alike, the source gives them in different places. Ends that are not written are not given here. Where only a bound is given, the exact number is not on record here.

The subject of one data set is grass carp CIK cells. The data set can be described thus: Cytotoxicity test (MTT method). Type of data set: cell-based. The following applies: final concentration 128 μM, 24 hours. The source says:
(§1) Cytotoxicity test of the interferon-derived polypeptide on human HEK293T cells and grass carp CIK cells:
(§2) The MTT method, also known as the MTT colorimetric method, is a method for measuring cell proliferation and cell survival rate. The detection principle is that the […] in the living cell mitochondria can reduce the exogenous MTT to a water-insoluble blue-purple crystalline Formazan which deposits in the cells, while the dead cells have no such function. DMSO can dissolve Formazan in the cells, and through measuring its absorbance by using an enzyme-linked immunosorbent detector at a wavelength of 492 nm, the number of living cells can be reflected indirectly. Within a certain range of the number of cells, the amount of the formed MTT crystal is proportional to the number of cells.
(§3) (1) Cell preparation: A human HEK293T cell line and grass carp CIK cell line preserved in liquid nitrogen are resuscitated and cultured in DMEM containing 10% fetal bovine serum under the conditions of 37° C./28° C., 5% CO2, and saturated humidity. The culture solution is changed every other day, and the cell passage is carried out by trypsinization. When 80%-90% of the bottom of the flask is covered with cells, the cells are washed twice with PBS, 2 ml of 0.25% trypsin digestive juice is added, and the degree of digestion is observed under an inverted microscope; when most of the cells are rounded and the cells are in loose connection, it indicates moderate digestion and this process is about 3 minutes; the digestion is terminated by adding a DMEM or MEM medium containing fetal bovine serum, the digestive juice is poured off, and about 3 ml of the cell culture solution is added to thoroughly blow the cells to form a single cell suspension. Finally, the diluted cell suspension is added to a 96-well plate, and 50 μl of the diluted cell suspension is added to each well at a concentration of about 1×10^4 cells/well.
(§4) The cell wells without the interferon-derived polypeptide are used as positive control, and the cell well with the interferon-derived polypeptide but without the cells are used as negative control, and the culture is further continued for 24 hours.
(§5) (3) Reading: After culture for a certain period of time, […] (5 mg/ml) of MTT is directly added to each well, and after culture for 4 hours, 150 μl of DMSO is added and vibration is carried out for 10 minutes to dissolve the crystal, and the absorbance is then measured at 492 nm by the enzyme-linked immunosorbent detector. The test is repeated three times.
(§6) Survival rate=(absorbance of experimental group−absorbance of negative group)/(absorbance of positive group−absorbance of negative group)×100%. (5)
(Tetrazolium assays rely on reduction of a dye to a coloured formazan, in cell work by metabolically active cells.)

Another data set has as its system red blood cells of mice. Put plainly: Hemolytic toxicity test on erythrocytes. The following applies: concentration 64 μM or above. The data set is classed as cell-based, BALB/c mice. Here is the method: (§7) (1) 1 ml of blood of fresh grass carp and BALB/c mice are collected respectively and stored with heparin sodium for anticoagulation.
(§8) (2) The fresh plasma solutions obtained in step (1) are centrifuged under 1000 g for 5 minutes, the supernatant is discarded, and red blood cells are collected.
(§9) (3) The collected red blood cells are washed 3 times with PBS buffer, centrifuged under 1000 g for 5 minutes each time, and finally resuspended in 5 ml of PBS buffer.
(§10) 50 μl PBS+50 μl red blood cell suspension is used as a negative control, and 50 μl of red blood cell suspension+50 μl of 0.2% Triton X-100 is used as a positive control.
(§11) (6) After 1 hour, the 96-well plate is taken out, and centrifuged under 1000 g for 5 minutes at 4° C.
(§12) (7) The supernatant of the above-mentioned centrifuged solutions is taken and placed on a clean 96-well plate again, and then absorbance is measured at 570 nm with a microplate reader.
(§13) (8) The average values of all the groups are compared and analyzed. The test is repeated three times. Calculation formula: Hemolysis rate=(absorbance of experimental group−absorbance of negative group)/(absorbance of positive group−absorbance of negative group)×100%. (9)

Data set [1] concerns red blood cells of grass carp. Put plainly: Hemolytic toxicity test on erythrocytes. Type of data set: cell-based. To be noted: concentration 64 μM or above. Here is the method: as §7, §8, §9, §10, §11, §12, §13
Data set [2] can be described thus: Cytotoxicity test (MTT method). The data set is classed as cell-based.
From the text: as §1, §2, §3, §4, §5, §6

A further data set relates to human HEK293T cells. Put plainly: Cytotoxicity test (MTT method). The data set is classed as cell-based. To be noted: 24 h, 128 µM.
From the text: as §1, §2, §3, §4, §5, §6

The nature of data set [3]: Toxicity of the drug to mice without bacterial infection (safe dose). The data set is classed as in vivo. The following applies: intraperitoneal injection, no bacterial infection. Here is the method: First, an appropriate drug treatment dose is selected through pre-tests, and an appropriate drug dose concentration is found through 3-5 different drug dose concentration groups. In addition, the toxicity of the drug to mice should be tested so as to preliminarily evaluate the safety of the drug, that is, in the absence of bacterial infection, only the mice are intraperitoneally injected with the interferon-derived polypeptide drug, and the safe dose range is <200 μg/head.

The mark [4] stands for this setting: human, HEK293T cells, Survival rate of cells.

`CC[C@H](C)[C@H](NC(=O)[C@H](CCCCN)NC(=O)[C@H](CCC(=O)O)NC(=O)[C@H](CCCCN)NC(=O)[C@H](CO)NC(=O)[C@H](CCCCN)NC(=O)[C@H](CCCNC(=N)N)NC(=O)[C@H](Cc1ccccc1)NC(=O)[C@H](Cc1ccccc1)NC(=O)[C@H](CC(=O)O)NC(=O)CNC(=O)[C@H](CC(C)C)NC(=O)[C@@H](N)CC(C)C)C(=O)NCC(=O)N[C@@H](CCCCN)C(=O)N[C@@H](CCC(=O)O)C(=O)N[C@@H](Cc1ccccc1)C(=O)N[C@@H](CCCCN)C(=O)N[C@@H](CCCNC(=N)N)C(=O)N[C@H](C(=O)N[C@H](C(=O)N[C@@H](CCC(N)=O)C(=O)N[C@@H](CCCNC(=N)N)C(=O)N[C@H](C(=O)N[C@@H](CCCCN)C(=O)N[C@@H](CC(=O)O)C(=O)N[C@@H](Cc1ccccc1)C(=O)N[C@@H](CC(C)C)C(=O)N[C@@H](CCCNC(=N)N)C(=O)N[C@@H](CC(N)=O)C(=O)N[C@@H](CC(C)C)C(=O)N[C@H](C(=O)N1CCC[C@H]1C(=O)N[C@@H](CCCNC(=N)N)C(=O)N[C@H](C(=O)N[C@@H](CCC(=O)O)C(=O)N[C@@H](CO)C(=O)O)[C@@H](C)O)C(C)C)[C@@H](C)CC)C(C)C)[C@@H](C)CC` [LL37]: in the data set on grass carp CIK cells, the “Survival rate of cells” value amounted to 15%. The “hemolytic toxicity (in words)” value (with red blood cells of mice; in data set [1]) was “obvious” in each case.
With “SYEKKINRHFKILKKNLKKK [Interferon-derived polypeptide]”, the “Survival rate of cells” value in the data set with grass carp CIK cells was 81%; in the data set on human HEK293T cells, 83%. The viability at 24 h, 8 µM in data set [2] (CIK cells, grass carp CIK, final concentration 8 μM, read-out: Survival rate of cells) amounted to 95.4%; in data set [2] (setting [4]) it was 98.3%. For the same compound, the viability at 24 h, 16 µM in data set [2] (CIK cells, grass carp CIK, final concentration 16 μM, read-out: Survival rate of cells) turned out to be 96.7%; in data set [2] (setting [4]), 97.2%. Also, the viability at 24 h, 32 µM was 95.2% in data set [2] (CIK cells, grass carp CIK, final concentration 32 μM, read-out: Survival rate of cells) and 93% in data set [2] (setting [4]). Besides, the viability at 24 h, 64 µM in data set [2] (CIK cells, grass carp CIK, final concentration 64 μM, read-out: Survival rate of cells) was determined as 87%; in data set [2] (setting [4]), 89%. In addition, the viability at 24 h, 128 µM in data set [2] (CIK cells, grass carp CIK, final concentration 128 μM, read-out: Survival rate of cells) was more than 80%; in data set [2] (setting [4]), more than 80%. This compound had a safe dose range in data set [3] of less than 200 μg/head.

(Values after US10577404B2, “Polypeptide derivatives from grass carp interferon and application thereof” (priority 2018, dated 2020).)
